Values after ≈ are worked out from the molar mass of the structure shown. Records with an inconclusive call do not appear. Active and inactive are the calls of the source. No rule for the calls is given here.
system: M. tuberculosis H37Rv growth inhibition; test: Confirmatory growth inhibition assay against Mycobacterium tuberculosis H37Rv, potency (AID 1949);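 also: bacteria grown 7 days with compound before Alamar blue readout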

SMILES	IC50
COCCNc1nc(-c2ccc(Cl)cc2)nc2ccccc12	> 50 µg/mL (inactive)
Cc1ccc(-n2cnc3cc(NCc4cccs4)ccc32)cc1	2.87 µg/mL (≈ 8.98 µM)
O=[N+]([O-])c1ccc(-c2[nH]c(-c3cccs3)nc2-c2ccccc2)cc1	2.86 µg/mL (≈ 8.23 µM)
Cc1ccccc1/C=C/c1ccc2cccc(O)c2n1	< 0.1 µg/mL
COC(=O)c1cccc(NC(=O)COc2ccc(C(C)(C)C)cc2)c1	> 50 µg/mL (inactive)
FC(F)(F)c1cccc(NC(=S)Nc2cccc(Cl)c2)c1	13.5 µg/mL (≈ 40.9 µM)
C=CCN(CC=C)C(=S)NC(=O)c1ccc(F)cc1	0.81 µg/mL (≈ 2.91 µM)
O=C(CC12CC3CC(CC(C3)C1)C2)Nc1ccc2ccccc2c1	< 0.1 µg/mL
Clc1ccc(OCCCCn2ccnc2)cc1Cl	2.01 µg/mL (≈ 7.05 µM)
O=C(CCN1Cc2ccccc2C1)c1ccc2c(c1)OCCO2	> 50 µg/mL (inactive)
CCN(CC)c1ccc(NC(=O)C(C)Oc2cccc(Cl)c2)cc1 (configuration not stated)	6.4 µg/mL (≈ 18.5 µM)
CC(Oc1ccc(C(=O)NC2CCCCC2)cc1)C(=O)OCc1ccccc1Cl (configuration not stated)	0.95 µg/mL (≈ 2.28 µM)
Cc1cc(Br)cc2c1N(CCCOc1ccccc1)C(=O)C2=O	9.2 µg/mL (≈ 24.6 µM)
COc1ccc2c(c1)CCC1Sc3ccccc3N=C21 (configuration not stated)	1.43 µg/mL (≈ 5.08 µM)
N#Cc1ccccc1NC(=O)CSc1nc2cc3ccccc3cc2[nH]1	2.68 µg/mL (≈ 7.48 µM)
CCc1cccc(NC(=O)c2ccc3ccccc3n2)c1	11.4 µg/mL (≈ 41.1 µM)
Cc1cc(Cl)ccc1N1CCN(CCNC(=O)Nc2ccc(F)cc2)CC1	> 50 µg/mL (inactive)
C=CCc1cc(C)ccc1OCCCCn1ccnc1	1.45 µg/mL (≈ 5.36 µM)
CCc1ccc(C(=O)NC(=S)Nc2ccc(C(=O)OC)cc2)cc1	3.98 µg/mL (≈ 11.6 µM)

SMILES	IC50
O=C(Oc1ccc(Cl)c2cccnc12)c1cccc(Br)c1	10.6 µg/mL (≈ 29.3 µM)
Cc1ccc(N2C(=O)CC(Sc3ccccc3C(=O)Nc3ccccc3)C2=O)cc1 (configuration not stated)	4.92 µg/mL (≈ 11.8 µM)
c1ccc2cc3nc4c(ccc5ccccc54)nc3cc2c1	< 0.1 µg/mL
Clc1ccc2[nH]c3c(c2c1)CCc1cn[nH]c1-3	> 50 µg/mL (inactive)
Cc1cccc(C)c1OCc1nnc(SCC(=O)NCCc2ccccc2)o1	1.75 µg/mL (≈ 4.4 µM)
CN(C)c1ccc(CNC23CC4CC(CC(C4)C2)C3)cc1	1.43 µg/mL (≈ 5.03 µM)
O=C(NCc1cccs1)c1cc2n(n1)C(C(F)(F)F)CC(c1ccc3c(c1)OCO3)N2 (configuration not stated)	1.5 µg/mL (≈ 3.33 µM)
O=C(Nc1nnc(C2CCCCC2)s1)c1sc2ccccc2c1Cl	0.37 µg/mL (≈ 0.979 µM)
CCN1CCN(c2ccc(NC(=O)c3cc(Br)cc(C)c3OC)cc2Cl)CC1	4.8 µg/mL (≈ 10.3 µM)
CCOC(=O)C(C)Oc1noc2nc(-c3ccccc3)ccc12 (configuration not stated)	3.92 µg/mL (≈ 12.6 µM)
CCCCc1ccc(NC(=O)COc2ccc(OCC)cc2)cc1	4.9 µg/mL (≈ 15 µM)
COc1ccc(-c2nc(NC(=O)c3ccccc3)n[nH]2)cc1OC	1.5 µg/mL (≈ 4.62 µM)
COc1ccc(CNC(=O)c2sc3nc4c(c(C(F)(F)F)c3c2N)CC(C)CC4)cc1OC (configuration not stated)	> 50 µg/mL (inactive)
CCc1ccc(Oc2nc([N+](=O)[O-])nn2C)cc1	1.13 µg/mL (≈ 4.55 µM)
O=C(Nc1ccn(Cc2ccc(Cl)cc2)n1)c1ccc2c(c1)OCO2	2.43 µg/mL (≈ 6.83 µM)
COc1ccc(-c2csc3ncn(C(C)C(=O)OC4CCCCC4)c(=O)c23)cc1 (configuration not stated)	10.9 µg/mL (≈ 26.5 µM)
O=C(Nc1ccc(N2CCCC2)c(Cl)c1)c1ccccc1F	5.78 µg/mL (≈ 18.1 µM)
O=C(Oc1ccc(Cl)cc1)c1sc2ccccc2c1Cl	24.2 µg/mL (≈ 74.9 µM)
Cc1ccc(C(C)C)c(OCCNCc2ccccc2)c1	> 50 µg/mL (inactive)

SMILES	IC50
CCOC(=O)/C(C#N)=C/c1ccc(-c2ccc(F)cc2)o1	0.25 µg/mL (≈ 0.876 µM)
O=[N+]([O-])c1ccc(-c2[nH]c(-c3cccc(F)c3)nc2-c2ccccc2)cc1	2.62 µg/mL (≈ 7.29 µM)
COc1ccc(Br)cc1C(=O)Nc1ccc(N2CCN(C(=O)C(C)C)CC2)c(Cl)c1	5.08 µg/mL (≈ 10.3 µM)
COC(=O)C(C)Sc1nnc(-c2ccc(Br)cc2)o1 (configuration not stated)	0.99 µg/mL (≈ 2.88 µM)
CC(=O)Oc1cc2c(cc1Cl)C1(CC(c3ccccc3Cl)O2)CC(C)(C)NC(=S)N1 (configuration not stated)	2.84 µg/mL (≈ 6.1 µM)
CCC(=O)c1ccc(OCC(O)CN2CCN(c3ccc(C)cc3C)CC2)cc1 (configuration not stated)	> 50 µg/mL (inactive)
COc1ccc(OCC(=O)N=Nc2c(O)[nH]c3c(Br)cc(C)cc23)c(Br)c1	16.7 µg/mL (≈ 33.6 µM)
O=C(NCCCN1CCN(c2ccc(Cl)cc2)CC1)Nc1ccc(F)cc1	9.16 µg/mL (≈ 23.4 µM)
O=C(Nc1ccc2oc(-c3cccc4ccccc34)nc2c1)c1cncc(Br)c1	2.72 µg/mL (≈ 6.12 µM)
Cc1c(C(=O)Nc2ccc(Cl)cc2)sc(N)c1C(=O)OC(C)C	7.88 µg/mL (≈ 22.3 µM)
COC(=O)CSc1[nH]c2ccc(F)cc2c1[N+](=O)[O-]	23.2 µg/mL (≈ 81.7 µM)
Cc1nc2ccc(C(=O)OCc3nnc(-c4ccccc4)o3)cc2nc1C	2.98 µg/mL (≈ 8.27 µM)
Cn1c(=O)[nH]c2nnc(-c3ccccn3)nc2c1=O	> 50 µg/mL (inactive)
CCOC(=O)c1ccc(NC(=O)CSc2nnc(-c3ccc(OC)cc3)o2)cc1	0.17 µg/mL (≈ 0.411 µM)
Cc1ccc(C(=O)Nc2nc(-c3ccccc3)c(-c3ccccc3)o2)cc1	< 0.1 µg/mL
O=C(COc1ccc(Cl)cc1Cl)Oc1cccc2cccnc12	5.88 µg/mL (≈ 16.9 µM)
CC(C)C1C(c2ccccc2)NC(c2ccccc2)CC1(O)c1ccc(F)cc1 (configuration not stated)	10.1 µg/mL (≈ 25.9 µM)
O=C(NCCC1=CCCCC1)C12CC3CC(CC(C3)C1)C2	11.2 µg/mL (≈ 39 µM)
COC(=O)c1ccc(CSc2nnc(-c3ccncc3)o2)o1	> 50 µg/mL (inactive)

Reference: PubChem BioAssay AID1949 (Southern Research Institute, 2009)
